In ChEMBL document CHEMBL1128418, “Synthesis and activity against multidrug resistance in Chinese hamster ovary cells of new acridone-4-carboxamides” (J Med Chem, 1995) one finds EC50 data, which are given here for 65 compounds.

The subject of test [1] is CHRC5 cell line. Put plainly: Reversal of sensitivity of multidrug resistant chinese hamster ovary cell line CHRC/5 expressed as concentration that restores 50% of cytotoxic activity of 5 ug/mL toward doxorubicin; Not active. Format: functional, cell-based, Cricetulus griseus.
In test [2] the test system is CHRC5 cell line. Put plainly: Reversal of sensitivity of multidrug resistant chinese hamster ovary cell line CHRC/5 expressed as concentration that restores 50% of cytotoxic activity of 5 ug/mL toward doxorubicin. The note with it: Cricetulus griseus. The test is classed as functional, cell-based.
For test [3], the system named is CHRC5 cell line. Put plainly: Reversal of sensitivity of multidrug resistant chinese hamster ovary cell line CHRC/5 expressed as concentration that restores 50% of cytotoxic activity of 5 ug/mL toward doxorubicin; Toxic alone to cells at 5 uM. The test is classed as functional, cell-based, Cricetulus griseus.

A word on the EC50: it is the concentration giving half of the maximal effect. Consider `COc1ccc(CCN(C)CCCN2CCC(NC(=O)c3cccc4c(=O)c5ccccc5[nH]c34)CC2)cc1OC`, for which, in test [1], the concentration for a half-maximal effect (EC50) result is reported as “Not Active”.
In the case of `COc1ccc(CN(C)CCc2ccc(NC(=O)c3cccc4c(O)c5cccc(C)c5nc34)c(C)c2)cc1OC`, the 50% effective concentration (EC50) in test [2] (read-out: EC50) was 80 nM.
With `CCc1cc(OCCCN(C)Cc2ccc(OC)c(OC)c2)ccc1NC(=O)c1cccc2c(O)c3cccc(F)c3nc12`, the concentration giving a half-maximal response (EC50) in test [2] (read-out: EC50) stood at 90 nM.
As to `CN(CCOc1ccc(NC(=O)c2cccc3c(=O)c4ccccc4[nH]c23)cc1)Cc1ccc(F)cc1`, in test [2] (read-out: EC50), the 50% effective concentration (EC50) worked out at 930 nM.
With `COc1ccc(CN(C)CCc2ccc(NC(=O)c3cccc4c(O)c5cccc(F)c5nc34)c(C)c2)cc1OC`, the EC50 in test [2] (read-out: EC50) was 88 nM.
On to `COc1ccc(CN(C)CCc2ccc(NC(=O)c3cccc4c(O)c5cccc(OC)c5nc34)cc2)cc1OC`, for which, in test [2] (read-out: EC50), the EC50 stood at 21 nM.
As for `COc1ccc(CN(C)Cc2ccc(NC(=O)c3cccc4c(O)c5ccccc5nc34)cc2)cc1OC`, the 50% effective concentration (EC50) in test [2] (read-out: EC50) worked out at 370 nM.
As to `COc1ccc(CN(C)CCc2ccc(NC(=O)c3cccc4c(O)c5cccc(F)c5nc34)cc2)cc1OC`, in test [2] (read-out: EC50), the EC50 was 18 nM.
On to `COc1cc2c(cc1OC)CN(CCc1ccc(NC(=O)c3cccc4c(O)c5cccc(F)c5nc34)cc1)CC2`, for which the concentration giving a half-maximal response (EC50) in test [2] (read-out: EC50) is 33 nM.
As for `COc1ccc(CN(C)CCCc2ccc(NC(=O)c3cccc4c(O)c5ccccc5nc34)cc2)cc1OC`, the EC50 in test [2] (read-out: EC50) came out at 60 nM.
With `CN(CCOc1ccc(NC(=O)c2cccc3c(=O)c4ccccc4[nH]c23)cc1)Cc1ccccc1`, the EC50 in test [2] (read-out: EC50) is 720 nM.
In the case of `COc1cc(OC)c2nc3c(C(=O)Nc4ccc(CCN(C)Cc5ccc(OC)c(OC)c5)cc4)cccc3c(O)c2c1`, the EC50 in test [2] (read-out: EC50) was found to be 22 nM.
The same measure, in the same setting: the same measure for `CSc1ccc(CN(C)CCOc2ccc(NC(=O)c3cccc4c(O)c5ccccc5nc34)cc2)cc1`: 690 nM; for `COc1cc(CCCN(C)Cc2ccc(OC)c(OC)c2)ccc1NC(=O)c1cccc2c(O)c3cccc(OC)c3nc12`: 37 nM.
On the same count and under the same terms, the same measure for `CN(CCOc1ccc(NC(=O)c2cccc3c(=O)c4ccccc4[nH]c23)cc1)Cc1ccc2c(c1)OCO2`: 550 nM.
For `COc1ccc(CCN(C)CCCC(C#N)(c2ccc(OC)c(OC)c2)C(C)C)cc1OC` (stereo not given), in test [2], the 50% effective concentration (EC50) is 3000 nM.
On to `COc1ccc(CN(C)CCCOc2ccc(NC(=O)c3cccc4c(O)c5cccc(C)c5nc34)c(C)c2)cc1OC`, for which the EC50 in test [2] (read-out: EC50) is 93 nM.
With `COc1ccc(CCN(C)CCOc2ccc(NC(=O)c3cccc4c(=O)c5ccccc5oc34)cc2)cc1OC`, the concentration for a half-maximal effect (EC50) in test [2] (read-out: EC50) worked out at 180 nM.
Regarding `COc1ccc(CN(C)CCCOc2ccc(NC(=O)c3cccc4c(O)c5cccc(F)c5nc34)c(C)c2)cc1OC`, in test [2] (read-out: EC50), the EC50 was found to be 63 nM.
For `COc1cc2c(cc1OC)CN(CCCOc1ccc(NC(=O)c3cccc4c(=O)c5ccccc5[nH]c34)cc1)CC2`, the concentration for a half-maximal effect (EC50) in test [2] (read-out: EC50) stood at 50 nM.
Consider `COc1ccc(CCN(C)CCCN2CCN(C(=O)c3cccc4c(O)c5ccccc5nc34)CC2)cc1OC`, for which the concentration for a half-maximal effect (EC50) entry in test [1] is reported as “Not Active”.
In the case of `CN(CCOc1ccc(NC(=O)c2cccc3c(=O)c4ccccc4[nH]c23)cc1)Cc1ccc(C(F)(F)F)cc1`, the EC50 in test [2] (read-out: EC50) came to 800 nM.
On to `COc1ccc2nc3c(C(=O)Nc4ccc(CCCCN(C)Cc5ccc(OC)c(OC)c5)cc4)cccc3c(O)c2c1`, for which the EC50 in test [2] (read-out: EC50) turned out to be 120 nM.
Still for that read-out and setting: the figure for `CCN(CCOc1ccc(NC(=O)c2cccc3c(=O)c4ccccc4[nH]c23)cc1)Cc1ccccc1` is 110 nM; for `COc1cc2c(cc1OC)CN(CCc1ccccc1NC(=O)c1cccc3c(O)c4cccc(OC)c4nc13)CC2` it is 305 nM.
On to `COc1ccccc1CN(C)CCOc1ccc(NC(=O)c2cccc3c(=O)c4ccccc4[nH]c23)cc1`, for which, in test [2] (read-out: EC50), the concentration for a half-maximal effect (EC50) came to 510 nM.
Regarding `COc1ccc(CN(C)CCCc2ccccc2NC(=O)c2cccc3c(O)c4cccc(OC)c4nc23)cc1OC`, in test [2] (read-out: EC50), the 50% effective concentration (EC50) came out at 585 nM.
Consider `CN(CCCCCCCCNC(=O)c1cccc2c(O)c3ccccc3nc12)Cc1ccccc1`, for which the concentration giving a half-maximal response (EC50) in test [2] (read-out: EC50) was 1100 nM.
Take `COc1ccc(CN(C)C/C=C/Cc2ccc(NC(=O)c3cccc4c(O)c5ccccc5nc34)cc2)cc1OC`: in test [2] (read-out: EC50), the EC50 came to 150 nM.
Regarding `COc1ccc(CN(C)CCCCCc2ccc(NC(=O)c3cccc4c(O)c5ccccc5nc34)cc2)cc1OC`, the concentration giving a half-maximal response (EC50) in test [2] (read-out: EC50) was found to be 150 nM.
For `COc1ccc(CNCCCOc2ccc(NC(=O)c3cccc4c(=O)c5ccccc5[nH]c34)cc2)cc1OC`, the EC50 in test [2] (read-out: EC50) was determined as 525 nM.
On to `O=C(Nc1ccc(OCCCN2CCc3ccccc3C2)cc1)c1cccc2c(=O)c3ccccc3[nH]c12`, for which the half-maximal effective concentration (EC50) in test [2] (read-out: EC50) was found to be 210 nM.
`COc1ccc(CN(C)CCCc2cccc(NC(=O)c3cccc4c(O)c5cccc(OC)c5nc34)c2)cc1OC`: the EC50 in test [2] (read-out: EC50) was 45 nM.
As for `COc1ccc(CCN(C)CCOc2ccc(NC(=O)c3cccc4cc5ccccc5nc34)cc2)cc1OC`, the EC50 entry in test [3] was “Toxic”.
For `COc1ccc(CN(C)CCOc2ccc(NC(=O)c3cccc4c(=O)cc(-c5ccccc5)[nH]c34)cc2)cc1OC`, the EC50 in test [2] (read-out: EC50) stood at 330 nM.
As to `Cc1ccc(CN(C)CCOc2ccc(NC(=O)c3cccc4c(=O)c5ccccc5[nH]c34)cc2)cc1`, the EC50 in test [2] (read-out: EC50) came out at 240 nM.
Still for that read-out and setting: the same measure for `COc1ccc(CN(C)CCOc2ccc(NC(=O)c3cccc4c(O)c5ccccc5nc34)cc2)cc1OC`: 90 nM.
With `COc1ccc(CCN(C)CCOc2ccc(NC(=O)c3cccc4c3Nc3ccccc3S4)cc2)cc1OC`, in test [2] (read-out: EC50), the concentration for a half-maximal effect (EC50) came out at 180 nM.
As for `COc1cc2c(cc1OC)CN(CCc1ccc(NC(=O)c3cccc4c(=O)c5cccc(OC)c5[nH]c34)cc1)CC2`, in test [2] (read-out: EC50), the half-maximal effective concentration (EC50) was determined as 21 nM.
`COc1cc(CCN(C)Cc2ccc(OC)c(OC)c2)ccc1NC(=O)c1cccc2c(O)c3cccc(F)c3nc12`: in test [2] (read-out: EC50), the EC50 was 21 nM.
`COc1ccc(CN(C)C/C=C/c2ccc(NC(=O)c3cccc4c(O)c5ccccc5nc34)cc2)cc1OC`: the EC50 in test [2] (read-out: EC50) was 270 nM.
Regarding `COc1ccc(CN(C)CCOc2ccc(NC(=O)c3cccc4c(=O)c5ccccc5[nH]c34)cc2)cc1`, in test [2] (read-out: EC50), the EC50 stood at 650 nM.
On the same count and under the same terms, the same measure for `COc1ccc(CN(C)CCc2ccccc2NC(=O)c2cccc3c(O)c4cccc(OC)c4nc23)cc1OC`: 465 nM; for `COc1ccc(CCN(C)CCOc2ccc(NC(=O)c3cccn4c(=O)c5ccccc5nc34)cc2)cc1OC`: 210 nM; for `COc1cc(CCCN(C)Cc2ccc(OC)c(OC)c2)ccc1NC(=O)c1cccc2c(O)c3cccc(F)c3nc12`: 43 nM.
For `CCN(CC)CCOc1ccc(NC(=O)c2cccc3c(=O)c4ccccc4[nH]c23)cc1`, in test [1], the EC50 entry is listed as “Not Active”.
Take `COc1cc(OCCCN(C)Cc2ccc(OC)c(OC)c2)ccc1NC(=O)c1cccc2c(O)c3cccc(C)c3nc12`: the EC50 in test [2] (read-out: EC50) is 40 nM.
Still for that read-out and setting: the figure for `COc1ccc(CN(C)CCCCc2ccc(NC(=O)c3cccc4c(O)c5ccccc5nc34)cc2)cc1OC` is 30 nM; for `COc1cc2c(cc1OC)CN(CCc1cccc(NC(=O)c3cccc4c(O)c5cccc(OC)c5nc34)c1)CC2` it is 155 nM; for `COc1ccc(CN(C)CCc2ccc(NC(=O)c3cccc4c(O)c5ccccc5nc34)cc2)cc1OC` it is 27 nM.
Take `COc1ccc(CCN(C)CCOc2ccc(NC(=O)c3cccc4c3Oc3ccccc3O4)cc2)cc1OC`: the EC50 in test [2] (read-out: EC50) came to 460 nM.
Same read-out and setting: the figure for `COc1ccc(CCN(C)CCCOc2ccc(NC(=O)c3cccc4c(=O)c5ccccc5[nH]c34)cc2)cc1OC` is 90 nM.
Regarding `COc1ccc(CN(C)CCCSc2ccc(NC(=O)c3cccc4c(O)c5ccccc5nc34)cc2)cc1OC`, the half-maximal effective concentration (EC50) in test [2] (read-out: EC50) is 45 nM.
`COc1ccc(CN(C)CCc2ccc(NC(=O)c3cccc4c(=O)c5ccccc5n(C)c34)cc2)cc1OC`: in test [2] (read-out: EC50), the concentration giving a half-maximal response (EC50) was determined as 210 nM.
On to `COc1ccc(CCN(C)CCOc2ccc(NC(=O)c3cccc4c(=O)c5ccccc5sc34)cc2)cc1OC`, for which, in test [2] (read-out: EC50), the 50% effective concentration (EC50) was determined as 90 nM.
Same read-out and setting: the figure for `COc1ccc(CN(C)CCOc2ccc(NC(=O)c3cccc4c(O)c5cccc(OC)c5nc34)c(C)c2)cc1OC` is 280 nM.
For the compound `COc1ccc(CN(C)CCc2ccc(NC(=O)c3cccc4c(O)c5cccc(C)c5nc34)cc2)cc1OC`, in test [2] (read-out: EC50), the EC50 stood at 21 nM.
Consider `COc1ccc(CN(C)CCCOc2ccc(NC(=O)c3cccc4c(O)c5ccccc5nc34)cc2)cc1OC`, for which the 50% effective concentration (EC50) in test [2] (read-out: EC50) is 36 nM.
Take `COc1ccc(CCN(C)CCOc2ccc(NC(=O)c3cccc4c3C(=O)c3ccccc3C4=O)cc2)cc1OC`: the concentration for a half-maximal effect (EC50) in test [2] (read-out: EC50) came out at 1500 nM.
On the same count and under the same terms, the same measure for `COc1cc(OCCCN(C)Cc2ccc(OC)c(OC)c2)ccc1NC(=O)c1cccc2c(O)c3cccc(F)c3nc12`: 30 nM; for `COc1cc2c(cc1OC)CN(CCCc1cccc(NC(=O)c3cccc4c(O)c5cccc(OC)c5nc34)c1)CC2`: 48 nM.
With `COc1ccc(CCN(C)CCOc2ccc(NC(=O)c3cccc4c(Cl)c5ccccc5nc34)cc2)cc1OC`, the EC50 in test [2] (read-out: EC50) was found to be 660 nM.
For the compound `COc1ccc(CN(C)CCOc2ccc(NC(=O)c3cccc4nc5ccccc5nc34)cc2)cc1OC`, the EC50 in test [2] (read-out: EC50) worked out at 330 nM.
On to `COc1ccc(CN(C)CCc2ccc(NC(=O)c3cccc4c(O)c5cccc([N+](=O)[O-])c5nc34)cc2)cc1OC`, for which the 50% effective concentration (EC50) in test [2] (read-out: EC50) turned out to be 195 nM.
With `COc1ccc(CN(C)CCCCc2ccc(NC(=O)c3cccc4c(O)c5cccc(N)c5nc34)cc2)cc1OC`, the EC50 in test [2] (read-out: EC50) is 177 nM.
